Biological target: T1, pY705-STAT3 in PBMC (Homo sapiens, UniProt P40763)
T1 construct: Cryopreserved Peripheral Blood Mononuclear Cells (PBMC) are from AllCells; host or cells: cryopreserved PBMC
Test: MSD-pSTAT-PBMC Assay (pSTAT3, IL-6 stimulated)
Type: cell-based
Conditions: PBMC, compound 3 hrs, then 10 ng/mL IL-6 for 10 min; Table 115; read-out: STAT3
Procedure, shortened: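 Human PBMCs were pretreated with compound for 3 h, then stimulated with 10 ng/mL IL-6 for 10 min. Lysate pY705-STAT3 was measured by MSD sandwich immunoassay (anti-STAT3 capture) and corrected for unstimulated background. Signal was normalized to DMSO, and IC50 came from variable-slope regression.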

T1 sequence (P40763 whole entry): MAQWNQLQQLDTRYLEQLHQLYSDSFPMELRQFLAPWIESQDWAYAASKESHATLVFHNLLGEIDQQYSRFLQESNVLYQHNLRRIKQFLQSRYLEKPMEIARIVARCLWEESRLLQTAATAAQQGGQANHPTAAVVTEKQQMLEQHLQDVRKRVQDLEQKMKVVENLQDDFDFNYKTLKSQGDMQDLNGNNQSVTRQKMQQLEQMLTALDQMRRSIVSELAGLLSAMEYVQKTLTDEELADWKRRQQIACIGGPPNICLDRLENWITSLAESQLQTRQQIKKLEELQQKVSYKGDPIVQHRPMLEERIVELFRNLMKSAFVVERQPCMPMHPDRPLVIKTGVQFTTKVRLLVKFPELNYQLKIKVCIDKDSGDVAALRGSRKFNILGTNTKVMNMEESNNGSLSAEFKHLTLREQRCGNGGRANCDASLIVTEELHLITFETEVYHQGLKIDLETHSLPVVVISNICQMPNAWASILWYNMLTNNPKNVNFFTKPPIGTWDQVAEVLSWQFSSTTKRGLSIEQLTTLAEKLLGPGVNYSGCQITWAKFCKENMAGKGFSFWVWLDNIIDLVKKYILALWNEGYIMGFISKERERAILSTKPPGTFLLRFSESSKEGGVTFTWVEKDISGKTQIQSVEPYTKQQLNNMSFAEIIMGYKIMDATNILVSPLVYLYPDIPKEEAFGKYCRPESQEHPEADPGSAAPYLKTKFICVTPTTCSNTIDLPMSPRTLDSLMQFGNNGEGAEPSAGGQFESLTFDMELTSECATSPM

Row | SMILES | IC50
1 | CCCCOC(=O)[C@H](C)NP(=O)(Cc1ccc2sc(C(=O)N[C@H]3CCC[C@H]4CC[C@@H](C(=O)N5CC(c6cccnc6)C5)N4C3=O)cc2c1)Oc1ccccc1 (stereo partly drawn) [Compound 279, butyl (((2-(((3S,6S,9aS)-5-oxo-3-(3-(pyridin-3-yl)azetidine-1-carbonyl)octahydro-1H-pyrrolo[1,2-a]azepin-6-yl)carbamoyl)benzo [b]thiophen-5-yl)methyl)(phenoxy)phosphoryl)-L-alaninate] | < 100 nM
2 | CCCOC(=O)[C@H](C)NP(=O)(Oc1ccccc1)[C@H](F)c1ccc2sc(C(=O)N[C@H]3CCC[C@H]4CC[C@@H](C(=O)N5CC(c6cnccc6N6CCOCC6)C5)N4C3=O)cc2c1 (stereo partly drawn) [Compound 1065, propyl (((S)-fluoro(2-(((3S,6S,9aS)-3-(3-(4-morpholinopyridin-3-yl)azetidine-1-carbonyl)-5-oxooctahydro-1H-pyrrolo[1,2-a]azepin-6-yl)carbamoyl)benzo [b]thiophen-5-yl)methyl)(phenoxy)phosphoryl)-L-alaninate] | < 100 nM
3 | CCCOC(=O)[C@H](C)NP(=O)(Oc1ccccc1)C(C)(F)c1ccc2sc(C(=O)N[C@H]3CCC[C@H]4CC[C@@H](C(=O)N5CC(c6cccnc6)C5)N4C3=O)cc2c1 (stereo partly drawn) [Compound 313, propyl ((1-fluoro-1-(2-(((3S,6S,9aS)-5-oxo-3-(3-(pyridin-3-yl)azetidine-1-carbonyl)octahydro-1H-pyrrolo[1,2-a]azepin-6-yl)carbamoyl)benzo [b]thiophen-5-yl)ethyl)(phenoxy)phosphoryl)-L-alaninate] | 1000 to 3000 nM
4 | CC(C)COC(=O)[C@@H](NP(=O)(Cc1ccc2sc(C(=O)N[C@H]3CCC[C@H]4CC[C@@H](C(=O)N5CC(c6cccnc6)C5)N4C3=O)cc2c1)Oc1ccccc1)C(C)C (stereo partly drawn) [Compound 948, isobutyl (((2-(((3S,6S,9aS)-5-oxo-3-(3-(pyridin-3-yl)azetidine-1-carbonyl)octahydro-1H-pyrrolo[1,2-a]azepin-6-yl)carbamoyl)benzo [b]thiophen-5-yl)methyl) (phenoxy)phosphoryl)-L-valinate] | 1000 to 3000 nM
5 | CCCOC(=O)CNP(=O)(Cc1ccc2sc(C(=O)N[C@H]3CCC[C@H]4CC[C@@H](C(=O)N5CC(c6cccnc6)C5)N4C3=O)cc2c1)Oc1ccccc1 (stereo partly drawn) [Compound 264, propyl (((2-(((3S,6S,9aS)-5-oxo-3-(3-(pyridin-3-yl)azetidine-1-carbonyl)octahydro-1H-pyrrolo[1,2-a]azepin-6-yl)carbamoyl)benzo [b]thiophen-5-yl)methyl)(phenoxy)phosphoryl)glycinate] | 100 to 1000 nM
6 | CCCOC(=O)[C@H](C)NP(=O)(Cc1ccc2sc(C(=O)N[C@H]3CCC[C@H]4CC[C@@H](C(=O)N5CC(c6cccnc6)C5)N4C3=O)cc2c1)Oc1ccccc1 (stereo partly drawn) [Compound 307, propyl (((2-(((3S,6S,9aS)-5-oxo-3-(3-(pyridin-3-yl)azetidine-1-carbonyl)octahydro-1H-pyrrolo[1,2-a]azepin-6-yl)carbamoyl)benzo [b]thiophen-5-yl)methyl)(phenoxy)phosphoryl)-L-alaninate] | > 3000 nM
7 | CC[C@H](C)OC(=O)[C@H](C)NP(=O)(Cc1ccc2sc(C(=O)N[C@H]3CCC[C@H]4CC[C@@H](C(=O)N5CC(c6cccnc6)C5)N4C3=O)cc2c1)Oc1ccccc1 (stereo partly drawn) [Compound 276, (S)-sec-butyl (((2-(((3S,6S,9aS)-5-oxo-3-(3-(pyridin-3-yl)azetidine-1-carbonyl)octahydro-1H-pyrrolo[1,2-a]azepin-6-yl)carbamoyl)benzo [b]thiophen-5-yl)methyl)(phenoxy)phosphoryl)-L-alaninate] | 100 to 1000 nM
8 | CCCOC(=O)[C@H](C)NP(=O)(Oc1ccccc1)C(F)c1ccc2sc(C(=O)N[C@H]3CCCC[C@H]4CC[C@@H](C(=O)N5CC(OCCOC)(c6cccnc6)C5)N4C3=O)cc2c1 (stereo partly drawn) [Compound 995, propyl ((fluoro(2-(((3S,6S,10aS)-3-(3-(2-methoxyethoxy)-3-(pyridin-3-yl)azetidine-1-carbonyl)-5-oxodecahydropyrrolo [1,2-a]azocin-6-yl)carbamoyl)benzo [b]thiophen-5-yl)methyl)(phenoxy)phosphoryl)-L-alaninate] | < 100 nM
9 | CCCOC(=O)[C@H](C)NP(=O)(Oc1ccccc1)[C@@H](F)c1ccc2sc(C(=O)N[C@H]3CCC[C@H]4CC[C@@H](C(=O)N5CC(c6cnccc6N6CCOCC6)C5)N4C3=O)cc2c1 (stereo partly drawn) [Compound 1064, propyl (((R)-fluoro(2-(((3S,6S,9aS)-3-(3-(4-morpholinopyridin-3-yl)azetidine-1-carbonyl)-5-oxooctahydro-1H-pyrrolo[1,2-a]azepin-6-yl)carbamoyl)benzo [b]thiophen-5-yl)methyl)(phenoxy)phosphoryl)-L-alaninate] | < 100 nM
10 | COc1ccncc1C1CN(C(=O)[C@@H]2CC[C@@H]3CCC[C@H](NC(=O)c4cc5cc([C@@H](F)[P@@](=O)(N[C@@H](C)C(=O)OC(C)C)Oc6ccccc6)ccc5s4)C(=O)N32)C1 (single isomer, unassigned) [Compound 956] | < 100 nM
11 | CCCOC(=O)[C@H](C)NP(=O)(Oc1ccccc1)C(F)c1ccc2sc(C(=O)N[C@H]3CCC[C@H]4CC[C@@H](C(=O)N5CC(c6cc(F)ccc6OC)C5)N4C3=O)cc2c1 (stereo partly drawn) [Compound 957, propyl ((fluoro(2-(((3S,6S,9aS)-3-(3-(5-fluoro-2-methoxyphenyl)azetidine-1-carbonyl)-5-oxooctahydro-1H-pyrrolo[1,2-a]azepin-6-yl)carbamoyl)benzo [b]thiophen-5-yl)methyl)(phenoxy)phosphoryl)-L-alaninate] | > 3000 nM
12 | CCCOC(=O)[C@H](C)NP(=O)(Cc1ccc2sc(C(=O)N[C@H]3CCC[C@H]4CC[C@@H](C(=O)N5CC(c6cnccc6OC(F)F)C5)N4C3=O)cc2c1)Oc1ccccc1 (stereo partly drawn) [Compound 996, propyl (((2-(((3S,6S,9aS)-3-(3-(4-(difluoromethoxy)pyridin-3-yl)azetidine-1-carbonyl)-5-oxooctahydro-1H-pyrrolo[1,2-a]azepin-6-yl)carbamoyl)benzo [b]thiophen-5-yl)methyl)(phenoxy) )phosphoryl)-L-alaninate] | 100 to 1000 nM
13 | CCCOC(=O)[C@H](C)NP(=O)(Cc1ccc2sc(C(=O)N[C@H]3CCC[C@H]4CC[C@@H](C(=O)N5CC(c6c(OC)ccnc6F)C5)N4C3=O)cc2c1)Oc1ccccc1 (stereo partly drawn) [Compound 980, propyl (((2-(((3S,6S,9aS)-3-(3-(2-fluoro-4-methoxypyridin-3-yl)azetidine-1-carbonyl)-5-oxooctahydro-1H-pyrrolo[1,2-a]azepin-6-yl)carbamoyl)benzo [b]thiophen-5-yl)methyl)(phenoxy)phosphoryl)-L-alaninate] | 1000 to 3000 nM
14 | CCCOC(=O)[C@H](C)NP(=O)(Oc1ccccc1)[C@@H](F)c1ccc2sc(C(=O)N[C@H]3C[C@@H](C)C[C@H]4CC[C@@H](C(=O)N5CC(c6cnccc6N(C)C)C5)N4C3=O)cc2c1 (stereo partly drawn) [Compound 1029, propyl (((R)-(2-(((3S,6S,8R,9aR)-3-(3-(4-(dimethylamino)pyridin-3-yl)azetidine-1-carbonyl)-8-methyl-5-oxooctahydro-1H-pyrrolo[1,2-a]azepin-6-yl)carbamoyl)benzo [b]thiophen-5-yl)fluoromethyl) (phenoxy)phosphoryl)-L-alaninate] | < 100 nM

Reference: patent US20250215029A1 (Recludix Pharma, Inc., priority 2022, published 2025)
